Measurements published in patent US20250235413A1, “MODIFIED FORMS OF AMBROXOL FOR THERAPEUTIC USE” (Zywie, LLC, priority 2021, published 2025).

What was measured:
mice = experiment: Cognitive acuity test (novel place recognition) in mice at 7 months; format: in vivo, mouse
Text: This is a cognitive test to measure short-term working memory, involving recognition of a familiar object found in an unfamiliar place (see Magen et al., Eur J Neurosci 35:870-882, 2012; Magen and Chesselet, J Parkinson's Disease 1:217-227, 2011). A Discrimination Index (DI)=(tnovel−tfamiliar)/(tnovel+tfamiliar) was used to assess the time spent exploring near the object in a novel place (“tnovel”) vs. the total exploration time overall. Discrimination Index scores greater than zero are considered to indicate good place recognition memory.
Three groups of mice, with at least 13 mice in each group, are given a cognitive acuity test at 7 months. The three groups of mice are: “High Dose” Group (150 mg/kg/day of compound 2), “Low Dose” (50 mg/kg/day of compound 2) Group, and a Control Group (no compound 2).
The dosage results are substantially lower than doses previously observed to effectively promote GCase chaperoning activity in mice (e.g., Migdalska-Richards et al., Ann Neurol 80:766-775, 2016).

male BDF1 mice = experiment: Lifespan study in mice fed compound in chow; format: in vivo, mouse; conditions: 50 mg/kg daily as chow supplement, vs control (FIG. 3)
Method: Group 1 represents control animals that were not administered ambroxol; and Group 2 represents animals administered 50 mg/kg (body weight) of ambroxol daily as a chow supplement, starting at 2 months of age.
Weaned male BDF1 mice raised from pups, housed 1-4 animals per cage and fed Teklad 7013 NIH-31 rodent chow and water ad libitum, at 2 months of age, are divided into two roughly equal groups of 22-25 animals. One group continues to be fed the Teklad chow as before (control); the other group is switched to Teklad chow formulated with compound 2 at 300 mg per kg of chow. This formulation was designed, based on the average ad libitum chow consumption of an adult male BDF1 mouse, to deliver 50 mg/kg/day (based on body mass) to each mouse in the treated group. Mice are maintained on this diet until they die naturally or until they reach 16 months of age, at which time the experiment ends. During the course of the experiment, all mice are periodically removed from their cages and handled in the course of subjecting them to various sensorimotor, cognitive, and/or behavioral tests.
Group 1 represents control animals that were not administered ambroxol; Group 2 represents animals administered 50 mg/kg of ambroxol daily as a chow supplement, starting at 2 months of age.

[1] = Metabolic stability in human liver microsomes; format: in vitro ADME; conditions: human liver microsomes 1 mg/mL protein, 1 μM compound, 37° C., NADPH-regenerating system; for half-life at 1 μM: 0-120 min, read-out: In vitro elimination half-life t1/2; for microsomal CLint at 1 μM: read-out: In vitro intrinsic clearance CLint-microsomes
Method: Study design—Test compounds (ambroxol and deuterated analogs) were dissolved in dimethylsulfoxide (DMSO) to prepare 1 mM stock solutions. The compounds were added to preparations of human liver microsomes (200 μL per incubation at a 1 mg/mL protein concentration) such that the final compound concentration was 1 μM. The samples were incubated at 37° C. in the presence of a reduced nicotinamide adenine dinucleotide phosphate (NADPH)-regenerating system (NADP, 1 mM, pH 7.4; glucose-6-phosphate, 5 mM, pH 7.4; glucose-6-phosphate dehydrogenase, 1 unit/mL)). A positive control (midazolam, 1 μM, 0.1 mg/mL protein) was incubated concurrently to ensure the microsome preparation was performing as expected. Samples were obtained at t=0, 30, 60, and 120 min and quenched by addition of acetonitrile.
Quenched samples were analyzed by liquid chromatography coupled to tandem mass spectrometry detection (LC/MS-MS). The concentration of the test compounds at each time point were converted to percent remaining relative to the concentration of the compound at time t=0 (which serves as the 100% value). All data points were included in data processing. The rate constant of elimination (kel, min^−1) of each test compound was determined from the time course of disappearance of the parent compound based on fitting the experimental data to a single exponential decay formula (At=Aoe^−kelt, where At is the % remaining at time t, Ao is 100%, kel is the elimination rate constant, and t is time). The in vitro half-life (t1/2) was determined from kel based on the formula: t1/2=ln(2)/kel. The rate constant of elimination was also used to calculate the in vitro intrinsic clearance CLint-microsomes (μL/min/mg protein).

SMILES	Cognitive acuity, Low Dose Group (mice; 50 mg/kg/day)	Cognitive acuity, High Dose Group (mice; 150 mg/kg/day)	Cognitive acuity (mice; High Dose and Low Dose vs Control (FIG. 4))	Lifespan (male BDF1 mice; starting at 2 months of age)	Healthspan (health of surviving animals when sacrificed) (male BDF1 mice)	half-life at 1 μM [1] [h]	microsomal CLint at 1 μM [1] [µL/min/mg]
Nc1c(Br)cc(Br)cc1CN[C@H]1CC[C@H](O)CC1 [ambroxol, trans-4-((2-amino-3,5-dibromobenzyl)amino)cyclohexanol]	results in between the Control Group and the “High Dose” Group	best cognitive acuity results	dose-related improvement	able to increase lifespan	healthspan was extended	1.01	11.4
[2H]C([2H])(N[C@H]1CC[C@H](O)CC1)c1cc(Br)cc(Br)c1N [ZW-001]						1.65	7
